Results published in PubChem BioAssay AID1963867 (Molecular Pharmacology Branch, DTP, NCI, 2024).

Test system: KRAS-mutant PDC tumor spheroid with HUVEC/MSC, viability
Assay: Anticancer human tumor 327498-153-R-J2-PDC patient-derived uterine carcinosarcoma cell line growth inhibition [KRAS2]
Settings: for viability, T/C: stronger effect = lower value
From the text: Multicellular complex tumor spheroid response to RAS pathway inhibitors in combination with a targeted agents in patient-derived cell lines with oncogenic KRAS variants from multiple cancer types
A high-throughput screen of multi-cell type tumor spheroids was designed to identify active combinations of targeted small molecules and KRAS pathway inhibitors. Complex spheroids include a stromal component modeled by human endothelial cells (HUVEC) and fibroblasts modeled by human mesenchymal stem cells (MSCs). The concentration ranges selected for each drug and investigational agent were based upon clinically achievable concentrations if the clinical Cmax of the agent was known.
Compounds. The drugs and investigational agents: BI-3406 (NSC825286), BAY-293 (NSC824723), batoprotafib (TNO155; NSC825523), sotorasib (AMG 510; NSC818433), MRTX1257 (NSC819558), elimusertib (BAY 1895344; NSC800525), molibresib (GSK525762; NSC774829), temuterkib (LY3214996; NSC803410), venetoclax (NSC766270), alisertib (NSC759677), olaparib (NSC753686), talazoparib (NSC767125), erdafitinib (NSC781556), ipatasertib (NSC767898), cabozantinib (NSC761068), nintedanib (NSC756659), abemaciclib (NSC768073), docetaxel (NSC628503), trametinib (NSC758246), and sapanisertib (NSC764658) were obtained from the National Cancer Institute (NCI) Developmental Therapeutics Program Chemical Repository. The FDA-approved anticancer drug set is available from the Developmental Therapeutics Program. […] The stock solutions were prepared in dimethyl sulfoxide (DMSO, Sigma-Aldrich, St. Louis, MO, cat. D2650) at 800-fold the tested concentration and stored at -70 degrees C prior to their use. All drugs and investigational agents were tested over a range starting from a high concentration at or near the clinical Cmax and decreasing in half-log increments. If the clinical Cmax for an agent had not been determined, the highest concentration tested was 10 microM.
Cell Culture. All cells were maintained in an incubator at 37 degrees C and 5% CO2 with 95% humidity. The PDC lines were cultured according to standard operating procedures established by the NCI PDMR (https://pdmr.cancer.gov/sops/default.htm). Briefly, all PDCs were thawed and cultured in Matrigel-coated flasks prepared with a working solution of 1X Ham's F-12 nutrient mix, without supplementation (Invitrogen, Waltham, MA, cat. 11765054), 100 U/mL penicillin-streptomycin (Invitrogen, cat. 15140122), and 2.5% Matrigel (Corning Inc., Corning, NY, cat. 354248) for the first three passages. All PDCs were cultured in complete DMEM/F-12 media containing advanced DMEM/F-12 (Invitrogen, cat. 12634028), 4.9% defined fetal bovine serum, heat inactivated (HyClone Laboratories Inc., Logan, UT, cat. SH30070.03HI), 389 ng/mL hydrocortisone (Sigma-Aldrich, cat. H4001), 9.7 ng/mL human EGF recombinant protein (Invitrogen, cat. PHG0313), 23.4 microg/mL adenine (Sigma-Aldrich, cat. A2786), 97.3 U/mL penicillin-streptomycin (Invitrogen, cat. 15140122), 1.9 mM L-glutamine (Invitrogen, cat. 25030081), and 9.7 microM Y-27632 dihydrochloride (Tocris Bioscience, Bristol, United Kingdom, cat. 1254). The PDCs were cultured in complete DMEM/F12 media without 9.7 microM Y-27632 dihydrochloride for at least two passages prior to the screen. The established cell line HOP-62 was cultured in RPMI 1640 medium, HEPES (Invitrogen, cat. 22400105) with 10% defined fetal bovine serum (HyClone Laboratories Inc., cat. SH30070.03) and 2 mM L-glutamine (Invitrogen, cat. 25030081). The pooled donor HUVEC were cultured in endothelial cell growth medium 2 (PromoCell, Heidelberg, Germany, cat. C-22011) and the hMSC were cultured in mesenchymal stem cell growth medium 2 (PromoCell, cat. C-28009). For all experiments, HUVEC and hMSC were used at passages </=5, while the malignant cell lines were used at passages </=15. […]

[1] = curve of first compound, second compound 0.1 µM
[2] = curve of first compound, second compound 0.316 µM
[3] = curve of first compound, second compound 1 µM
[4] = curve of first compound, second compound 3.16 µM
[5] = curve of first compound, second compound 10 µM
[6] = second compound 0.1 µM, first compound 0.0316 µM
[7] = second compound 0.1 µM, first compound 0.1 µM
[8] = second compound 0.316 µM, first compound 0.0316 µM
[9] = second compound 0.316 µM, first compound 0.1 µM
[10] = second compound 1 µM, first compound 0.0316 µM
[11] = second compound 1 µM, first compound 0.1 µM
[12] = second compound 3.16 µM, first compound 0.0316 µM
[13] = second compound 3.16 µM, first compound 0.1 µM
[14] = second compound 10 µM, first compound 0.0316 µM
[15] = second compound 10 µM, first compound 0.1 µM
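Further: spheroids exposed to agents for seven days before reading.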
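Wherever viability, T/C is given: 100% = DMSO vehicle wells so lower means fewer viable cells.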

For CN(C)C/C=C/C(=O)Nc1cc2c(Nc3ccc(F)c(Cl)c3)ncnc2cc1O[C@H]1CCOC1 + CNCc1ccccc1-c1csc(C(C)Nc2nc(C)nc3cc(OC)c(OC)cc23)c1, which IC50 [1] is on record?
Its IC50 is over 100 nM.

And the IC50 [2]?
The IC50 was over 100 nM.

And the IC50 [3]?
The IC50 was over 100 nM.

And the IC50 [4]?
The IC50 was 1.72 nM.

What about the IC50 [5] of the same compound?
Its IC50 is under 0.316 nM.

What about the viability, T/C (second compound 0.1 µM, first compound 0.000316 µM) of the same compound?
The viability, T/C was 87.9%.

What about the viability, T/C (second compound 0.1 µM, first compound 0.001 µM) of the same compound?
The viability, T/C was 79.1%.

And the viability, T/C (second compound 0.1 µM, first compound 0.00316 µM)?
The viability, T/C was 79.7%.

What about the viability, T/C (second compound 0.1 µM, first compound 0.01 µM) of the same compound?
Its viability, T/C is 81%.

What about the viability, T/C [6] of the same compound?
The viability, T/C was 71.5%.

And the viability, T/C [7]?
Its viability, T/C is 77.4%.

What about the viability, T/C (second compound 0.316 µM, first compound 0.000316 µM) of the same compound?
The viability, T/C was 78.9%.

And the viability, T/C (second compound 0.316 µM, first compound 0.001 µM)?
The viability, T/C was 67.8%.

What about the viability, T/C (second compound 0.316 µM, first compound 0.00316 µM) of the same compound?
Its viability, T/C is 73.9%.

And the viability, T/C (second compound 0.316 µM, first compound 0.01 µM)?
The viability, T/C was 67.2%.

What about the viability, T/C [8] of the same compound?
Its viability, T/C is 65.8%.

And the viability, T/C [9]?
The viability, T/C was 64%.

What about the viability, T/C (second compound 1 µM, first compound 0.000316 µM) of the same compound?
The viability, T/C was 76.6%.

What about the viability, T/C (second compound 1 µM, first compound 0.001 µM) of the same compound?
Its viability, T/C is 67.9%.

What about the viability, T/C (second compound 1 µM, first compound 0.00316 µM) of the same compound?
Its viability, T/C is 64%.

And the viability, T/C (second compound 1 µM, first compound 0.01 µM)?
Its viability, T/C is 73.4%.

What about the viability, T/C [10] of the same compound?
Its viability, T/C is 58.2%.

And the viability, T/C [11]?
The viability, T/C was 65.7%.

And the viability, T/C (second compound 3.16 µM, first compound 0.000316 µM)?
The viability, T/C was 62.1%.

And the viability, T/C (second compound 3.16 µM, first compound 0.001 µM)?
The viability, T/C was 51.1%.

And the viability, T/C (second compound 3.16 µM, first compound 0.00316 µM)?
The viability, T/C was 42.6%.

And the viability, T/C (second compound 3.16 µM, first compound 0.01 µM)?
The viability, T/C was 1.18%.

And the viability, T/C [12]?
The viability, T/C was 22.6%.

What about the viability, T/C [13] of the same compound?
Its viability, T/C is 21.1%.

And the viability, T/C (second compound 10 µM, first compound 0.000316 µM)?
Its viability, T/C is 0.49%.

And the viability, T/C (second compound 10 µM, first compound 0.001 µM)?
Its viability, T/C is 0.76%.

What about the viability, T/C (second compound 10 µM, first compound 0.00316 µM) of the same compound?
The viability, T/C was 0.34%.

And the viability, T/C (second compound 10 µM, first compound 0.01 µM)?
Its viability, T/C is 0.27%.

And the viability, T/C [14]?
Its viability, T/C is 1.73%.

What about the viability, T/C [15] of the same compound?
The viability, T/C was 0.36%.

What does the source list for COC(=O)c1ccc2c(C(=Nc3ccc(N(C)C(=O)CN4CCN(C)CC4)cc3)c3ccccc3)c(O)[nH]c2c1 + CC1OCC2(CCN(c3cnc(Sc4ccnc(N)c4Cl)c(N)n3)CC2)C1N?
IC50 [1]: 561 nM; IC50 [2]: 157 nM; IC50 [3]: < 31.6 nM; IC50 [4]: < 31.6 nM; IC50 [5]: < 31.6 nM; viability, T/C [6]: 76%; viability, T/C [7]: 68.8%; viability, T/C (second compound 0.1 µM, first compound 0.316 µM): 58%; viability, T/C (second compound 0.1 µM, first compound 1 µM): 43.8%; viability, T/C (second compound 0.1 µM, first compound 3.16 µM): 26%; viability, T/C (second compound 0.1 µM, first compound 10 µM): 26.8%; viability, T/C [8]: 57.1%; viability, T/C [9]: 50.7%; viability, T/C (second compound 0.316 µM, first compound 0.316 µM): 44.7%; viability, T/C (second compound 0.316 µM, first compound 1 µM): 34.5%; viability, T/C (second compound 0.316 µM, first compound 3.16 µM): 16.2%; viability, T/C (second compound 0.316 µM, first compound 10 µM): 18.8%; viability, T/C [10]: 40.4%; viability, T/C [11]: 41.9%; viability, T/C (second compound 1 µM, first compound 0.316 µM): 33.3%; viability, T/C (second compound 1 µM, first compound 1 µM): 20.6%; viability, T/C (second compound 1 µM, first compound 3.16 µM): 14.5%; viability, T/C (second compound 1 µM, first compound 10 µM): 11.4%; viability, T/C [12]: 36%; viability, T/C [13]: 33.4%; viability, T/C (second compound 3.16 µM, first compound 0.316 µM): 23.5%; viability, T/C (second compound 3.16 µM, first compound 1 µM): 14.1%; viability, T/C (second compound 3.16 µM, first compound 3.16 µM): 11%; viability, T/C (second compound 3.16 µM, first compound 10 µM): 10.1%; viability, T/C [14]: 28%; viability, T/C [15]: 27.9%; viability, T/C (second compound 10 µM, first compound 0.316 µM): 20.5%; viability, T/C (second compound 10 µM, first compound 1 µM): 13.3%; viability, T/C (second compound 10 µM, first compound 3.16 µM): 11.4%; viability, T/C (second compound 10 µM, first compound 10 µM): 9.36%

Cn1ncnc1[C@H]1c2n[nH]c(=O)c3cc(F)cc(c23)N[C@@H]1c1ccc(F)cc1 was tested. Which viability, T/C (compound 0.000316 µM) did it give?
The viability, T/C was 103% [middle of 5 runs].

And the viability, T/C (compound 0.001 µM)?
Its viability, T/C is 99% [middle of 5 runs].

And the viability, T/C (compound 0.00316 µM)?
Its viability, T/C is 94.2% [middle of 5 runs].

And the viability, T/C (compound 0.01 µM)?
Its viability, T/C is 81.5% [middle of 5 runs].

And the viability, T/C (compound 0.0316 µM)?
Its viability, T/C is 42.4% [middle of 5 runs].

What about the viability, T/C (compound 0.1 µM) of the same compound?
The viability, T/C was 22.4% [middle of 5 runs].

And the IC50 (curve of compound)?
Its IC50 is 25.3 nM [middle of 5 runs].
